Data: publication PMC10647090, “Structure-Based Discovery of Mouse Trace Amine-Associated Receptor 5 Antagonists” (Journal of Chemical Information and Modeling, 2023)
“Also recorded” adds a separate entry of the source. Where two headings read alike, the source gives them in different places. Each block holds one compound with its values, some of them ahead of it.

Experiments:
mTAAR5 [1] = target: T1, mTAAR5 (Mus musculus, UniProt Q5QD14); parameters: method as in PMID 29713997; settings: training set inactives; cited from earlier work
T1 construct: rho tag (rhodopsin-derived tag) (N); expressed in transfected cells; host or cells: HEK293, transient transfection with lipofectamine 2000; plasmid a gift from Prof; Liberles
T1 sequence (Q5QD14 1-337): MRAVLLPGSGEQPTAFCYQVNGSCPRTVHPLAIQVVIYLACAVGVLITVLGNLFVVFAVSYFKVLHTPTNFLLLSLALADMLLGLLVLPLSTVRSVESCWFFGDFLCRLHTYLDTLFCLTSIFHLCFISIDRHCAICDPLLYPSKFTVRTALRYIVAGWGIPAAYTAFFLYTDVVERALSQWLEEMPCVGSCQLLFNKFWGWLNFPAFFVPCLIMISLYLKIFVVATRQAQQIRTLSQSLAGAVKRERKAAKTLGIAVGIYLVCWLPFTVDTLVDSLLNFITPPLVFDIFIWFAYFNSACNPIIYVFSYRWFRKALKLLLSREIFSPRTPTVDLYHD

mTAAR5 [2] = target: T1, mTAAR5; test: BRET cAMP assay, agonistic activity; format: cell-based; settings: HEK-293 cells transfected with EPAC cAMP BRET biosensor and mTAAR5; compared to saline
Protocol: (§1) TAAR5 is a receptor coupled to a stimulatory G protein, and its activation evokes cAMP production. Therefore, HEK293 cells were cotransfected with mTAAR5 and cAMP BRET biosensor. Light emission changes according to the cAMP fluctuation.[60] TMA (10 μM) was used as a reference mTAAR5 agonist to evaluate the activity of the compounds throughout the BRET-based assay and tested at 10 μM for either agonistic or antagonistic activity.
Human embryonic kidney 293cells (HEK293) were maintained in Dulbecco’s modified Eagle’s, high glucose, GlutaMAX^TM medium (Gibco^TM) supplemented with 10% 331 (v/v) of FBS and 1% penicillin/streptomycin at 37 °C in a humidified atmosphere at 95% air and 5% CO2. […]
BRET experiments were performed as described previously.[60] […] For the evaluation of the agonistic activity, the plate was read immediately after the addition of the compounds for approximately 20 min. For the evaluation of the antagonistic activity, the compounds were added 5 min before the addition of the control TAAR5 agonist, TMA, and read for approximately 20 min. […] The activity of a putative mTAAR5 antagonist was evaluated in its ability to decrease or abolish the increase of the cAMP levels induced by TMA. […] Readings were collected using Tecan Infinite instrument that allows the sequential signals integration detected in the 465 to 505 nm and 515 to 555 nm windows. […]

empty vector CTRL cells = test: BRET cAMP assay in cells without mTAAR5 (empty vector); format: cell-based, human; settings: HEK-293 cells transfected with EPAC cAMP BRET biosensor and empty vector; listed as TMA
Protocol: as §1
Figure S6. Effect of TMA on cAMP level is mediated by mTAAR5. HEK-293 cells were transfected with
EPAC cAMP BRET biosensor with mTAAR5 or empty vector.
calculated as mean ± SEM of 3 independent experiments.
(1 picture or pasted object on this page, not shown here)

mTAAR5 [3] = target: T1, mTAAR5; settings: cited from earlier work; for Potency pEC50 (negative log of EC50, modulating cAMP levels): mTAAR5 agonist; for Potency pIC50 (negative log of IC50, modulating cAMP levels): mTAAR5 antagonists
5-HT1A [4] = settings: cited from earlier work
5-HT1E = tested on: 5-HT1E; parameters: method as in ref 6, 11-12 (SI); settings: 11-12 (SI); cited from earlier work
mTAAR5 [5] = target: T1, mTAAR5; test: BRET cAMP assay, antagonistic activity against TMA; format: cell-based; settings: HEK293 cells cotransfected with mTAAR5 and cAMP BRET (EPAC) biosensor; against TMA 10 μM; 3 independent experiments
Protocol: as §1
Human embryonic kidney 293cells (HEK293) were maintained in Dulbecco’s modified Eagle’s, high glucose, GlutaMAX^TM medium (Gibco^TM) supplemented with 10% 331 (v/v) of FBS and 1% penicillin/streptomycin at 37 °C in a humidified atmosphere at 95% air and 5% CO2. For the bioluminescence resonance energy transfer (BRET) experiments, cells were plated in 10 cm dishes 24 h prior to the transient transfection of 7 μg of rho-TAAR5 (a generous gift from Prof. Liberles) and 7 μg of EPAC using lipofectamine 2000 (Invitrogen). Five h after transfection, cells were plated in poly-D-lysinecoated 96-well microplates (well-assay white plate with clear bottom, Greiner) at a density of 70,000 cells per well in Opti-MEM (Gibco^TM) and then cultured for an additional 24 h. The serotonergic ligand library was purchased from Enzo (SCREEN-WELL Serotonergic ligand library).
BRET experiments were performed as described previously.[60] All the compounds were tested at the initial concentration of 10 μM. For the evaluation of the agonistic activity, the plate was read immediately after the addition of the compounds for approximately 20 min. For the evaluation of the antagonistic activity, the compounds were added 5 min before the addition of the control TAAR5 agonist, TMA, and read for approximately 20 min. For the ones that were active, a concentration–response assessment was performed by using different concentrations of the antagonist. TMA is the standard mTAAR5 agonist and induces an increase in cAMP levels. The activity of a putative mTAAR5 antagonist was evaluated in its ability to decrease or abolish the increase of the cAMP levels induced by TMA. The IC50 was then calculated by measuring the effect of the compounds against the effect of TMA at 10 μM. Readings were collected using Tecan Infinite instrument that allows the sequential signals integration detected in the 465 to 505 nm and 515 to 555 nm windows. EPAC BRET biosensor was used to monitor cAMP levels. BRET ratio is plotted in the graphs. Increased cAMP specifically reflects an increase in the BRET ratio. The activity of an antagonist was evaluated in terms of the ability to counteract the TMA increase in the BRET ratio. The acceptor/donor ratio was calculated as previously described.[108] […] The data are representative of at least 3 independent experiments and are expressed as means ± SEM.

5-HT1F = target: 5-HT1F; parameters: method as in ref 6, 11-12 (SI); settings: 11-12 (SI); cited from earlier work
5-HT1A [6] = tested on: 5-HT1A; parameters: method as in ref 13-14 (SI); settings: ref 13-14 (SI); cited from earlier work
5-HT4 = settings: cited from earlier work

Compound: CCCN(CCC)[C@@H]1CCc2c(OC)cccc2[C@@H]1C [(+)-UH 232]
activity at mTAAR5 in previous HTS campaigns (mTAAR5 [1]): inactive

Compound: CN(C)C [Compound 1, Trimethylamine]
effect on cAMP level with mTAAR5 expressed (mTAAR5 [2]): increases cAMP levels | effect on cAMP level in the absence of mTAAR5 (empty vector CTRL cells): not in empty vector CTRL cells; also recorded: no cAMP fluctuation | Potency pEC50 (negative log of EC50, modulating cAMP levels) (mTAAR5 [3]): pEC50: 5.49

Compound: C[N+](C)(C)CCC(=O)c1cccc2ccccc12 [Compound 2, Trimethyl-(3-naphthalen-1-yl-3-oxopropyl)azanium]
Potency pEC50 (negative log of EC50, modulating cAMP levels) (mTAAR5 [3]): pEC50: 5.82

Compound: COc1ccccc1N1CCN(CC2CCC(c3ccccc3)(c3ccccc3)O2)CC1 (centres unmarked) [Compound 3, 1-[(5,5-Diphenyloxolan-2-yl)methyl]-4-(2-methoxyphenyl)piperazine]
Potency pIC50 (negative log of IC50, modulating cAMP levels) (mTAAR5 [3]): pIC50: 4.36 | 5-HT1A pKi (5-HT1A [4]; ref 10 (SI)): 7.64

Compound: COc1ccccc1OCCNCC1COC(c2ccccc2)(c2ccccc2)O1 (centres unmarked) [Compound 4]
Potency pIC50 (negative log of IC50, modulating cAMP levels) (mTAAR5 [3]): pIC50: 3.54 | 5-HT1A pKi (5-HT1A [4]; ref 5 (SI)): 9.22

Compound: CN1CCC(c2c[nH]c3ccc(O)cc23)CC1 [Compound 5, 3-(1-methylpiperidin-4-yl)-1H-indol-5-ol]
5-HT1E pEC50 (5-HT1E): 8.16 | IC50 (mTAAR5 [5]): 2.7 µM | 5-HT1F pKi (5-HT1F): 8.15

Compound: CCCN(CCC)C1CCc2cccc(O)c2C1 (centres unmarked) [Compound 6, 7-(dipropylamino)-5,6,7,8-tetrahydronaphthalen-1-ol]
5-HT1A pEC50 (5-HT1A [6]): 7.24 | IC50 (mTAAR5 [5]): 3.8 µM

IC50 (mTAAR5 [5]): 4.7 µM
Compound: COc1cc(N)c(Cl)cc1C(=O)OCCCN1CCCCC1 [Compound 7, 3-(piperidin-1-yl)propyl 4-amino-5-chloro-2-methoxybenzoate]
5-HT4 pIC50 (5-HT4; ref 15-16 (SI)): 6.31

IC50 (mTAAR5 [5]): 13 µM
Compound: CCN(CC)CCOC(=O)c1cc(Cl)c(N)cc1OC [Compound 8, 2-(diethylamino)ethyl-4-amino-5-chloro-2-methoxybenzoate]
5-HT4 pIC50 (5-HT4; ref 17 (SI)): 6.11

Compound: CCN(CC)CCNC(=O)c1cc(Cl)c(N)cc1OC [Metoclopramide]
activity at mTAAR5 in previous HTS campaigns (mTAAR5 [1]): inactive

Compound: N-[2-(piperidinylamino)ethyl]-4-iodobenzamide
activity at mTAAR5 in previous HTS campaigns (mTAAR5 [1]): inactive
